In patent publication US20030232994A1, “Bicyclic thiophene derivatives and combinatorial libraries thereof” (priority 2001, published 2003):

System: Streptococcus pyogenes (ATCC# 97-03 14289)
Test: Anti-microbial screen (growth inhibition, OD 570 nm)
Type: cell-based
Conditions: growth in Todd Hewitt Broth, plates read at 570 nm at 0 time and 4 hours, color corrected
Experimental: Streptococcus pyogenes (ATCC# 97-03 14289) was grown in Todd Hewitt Broth (THB) (Difco Laboratories #0492-17-6) overnight until reaching an optical density of (OD=0.636 @ 570 nm) by reading 0.1 ml in a 96 well microtiter plate in a Molecular Devices Thermomax. This preparation was kept frozen as stocks in 30% v/v glycerol in 1.5 ml aliquots at −70^mC. until use. Prior to experiments, […] aliquots were thawed and diluted into 50 ml 2×THB. 60 ul of this dilution was added to 92 wells of microtiter plate. To three wells THB (200 ul) was added to serve as a blank and a sterility control. Test compounds in DMSO and appropriate concentrations of DMSO were added to Growth/Solvent Controls at 0 time. Plates were read at 0 time at 570 nm in the Molecular Devices plate reader to obtain compounds correction factors for insoluble or colored compounds. Plates were read again at 4 hours.
Percent inhibition is calculated with the following formulae: [drawing 4]
Color correct=O.D. 0 hr−Blank 0 hr)−(Solvent Control 0 hr−Blank 0 hr)
% Inhibition=100−O.D. test compound 4 hr−Blank 4 hr−color correct O.D. growth/solvent control 4 hr−Blank 4 hr

Structure (SMILES): O=C(Nc1sc2c(c1C(=O)O)CCN(C(=O)CCc1ccc(F)c(F)c1)C2)c1ccc(Cl)cc1
- % Inhibition: 82.59%

Structure (SMILES): CCc1ccc(C(=O)Nc2sc3c(c2C(=O)O)CCN(C(=O)c2cn(C)c4ccccc24)C3)cc1
- % Inhibition: 62.19%

Structure (SMILES): COc1cccc(C(=O)Nc2sc3c(c2C(=O)O)CCN(C(=O)c2ccccc2SC)C3)c1
- % Inhibition: 64.5%

Structure (SMILES): Cc1ccc(C)c(CC(=O)N2CCc3c(sc(NC(=O)c4ccc5ccccc5c4)c3C(=O)O)C2)c1
- % Inhibition: 67.34%

Structure (SMILES): CC(C)(C)c1ccc(C(=O)Nc2sc3c(c2C(=O)O)CCN(C(=O)c2cccc4ccccc24)C3)cc1
- % Inhibition: 73%

Structure (SMILES): Cc1ccccc1C(=O)N1CCc2c(sc(NC(=O)c3ccc4ccccc4c3)c2C(=O)O)C1
- % Inhibition: 78.88%

Structure (SMILES): O=C(Nc1sc2c(c1C(=O)O)CCN(C(=O)CC1CCCC1)C2)c1ccco1
- % Inhibition: 65.78%

Structure (SMILES): O=C(Nc1sc2c(c1C(=O)O)CCN(C(=O)c1ccc(C(F)(F)F)cc1)C2)c1ccccc1Cl
- % Inhibition: 64.41%

Structure (SMILES): Cc1ccccc1C(=O)N1CCc2c(sc(NC(=O)c3ccccc3)c2C(=O)O)C1
- % Inhibition: 80.08%

Structure (SMILES): O=C(Nc1sc2c(c1C(=O)O)CCN(C(=O)c1ccsc1)C2)c1ccco1
- % Inhibition: 66.72%

Structure (SMILES): Cc1ccc(C(=O)N2CCc3c(sc(NC(=O)CC(C)CC(C)(C)C)c3C(=O)O)C2)c(C)c1 (centres unmarked)
- % Inhibition: 81.9%

Structure (SMILES): O=C(Nc1sc2c(c1C(=O)O)CCN(C(=O)c1ccccc1Cl)C2)c1ccco1
- % Inhibition: 60.48%

Structure (SMILES): O=C(O)c1c(NC(=O)C2CCCCC2)sc2c1CCN(C(=O)/C=C/c1ccc(Cl)cc1)C2
- % Inhibition: 67.5%

Structure (SMILES): CC(CC(=O)Nc1sc2c(c1C(=O)O)CCN(C(=O)c1cccc3ccccc13)C2)CC(C)(C)C (centres unmarked)
- % Inhibition: 68.89%

Structure (SMILES): CCC(C(=O)Nc1sc2c(c1C(=O)O)CCN(C(=O)c1cc3ccccc3s1)C2)c1ccccc1 (centres unmarked)
- % Inhibition: 66.79%

Structure (SMILES): O=C(O)c1c(NC(=O)[C@]23C[C@H]4C[C@@H](C[C@H](C4)C2)C3)sc2c1CCN(C(=O)c1ccccc1C(F)(F)F)C2
- % Inhibition: 64.79%

Structure (SMILES): Cc1ccc(C)c(CC(=O)N2CCc3c(sc(NC(=O)c4ccccc4)c3C(=O)O)C2)c1
- % Inhibition: 86.14%

Structure (SMILES): CC(C)CC(=O)N1CCc2c(sc(NC(=O)c3ccccc3)c2C(=O)O)C1
- % Inhibition: 98.72%

Structure (SMILES): CC(C)(C)c1ccc(C(=O)Nc2sc3c(c2C(=O)O)CCN(C(=O)c2ccccc2C(F)(F)F)C3)cc1
- % Inhibition: 80.87%

Structure (SMILES): O=C(Nc1sc2c(c1C(=O)O)CCN(C(=O)/C=C/c1ccccc1Cl)C2)c1c(F)cccc1F
- % Inhibition: 77.66%

Structure (SMILES): COc1cccc(C(=O)N2CCc3c(sc(NC(=O)[C@]45C[C@H]6C[C@@H](C[C@H](C6)C4)C5)c3C(=O)O)C2)c1OC
- % Inhibition: 68.91%

Structure (SMILES): CCOc1ncccc1C(=O)N1CCc2c(sc(NC(=O)c3ccc(CC)cc3)c2C(=O)O)C1
- % Inhibition: 67.76%

Structure (SMILES): COc1cccc(C(=O)Nc2sc3c(c2C(=O)O)CCN(C(=O)c2ccccc2C)C3)c1
- % Inhibition: 74.32%

Structure (SMILES): CCc1ccc(C(=O)Nc2sc3c(c2C(=O)O)CCN(C(=O)c2cc(OC)ccc2OC)C3)cc1
- % Inhibition: 80.21%

Structure (SMILES): O=C(Nc1sc2c(c1C(=O)O)CCN(C(=O)c1cc3ccccc3s1)C2)c1ccccc1
- % Inhibition: 67.5%

Structure (SMILES): CCCSc1ncccc1C(=O)N1CCc2c(sc(NC(=O)c3ccccc3)c2C(=O)O)C1
- % Inhibition: 86.6%

Structure (SMILES): Cc1ccc(C(=O)N2CCc3c(sc(NC(=O)c4ccc5ccccc5c4)c3C(=O)O)C2)cn1
- % Inhibition: 62.67%

Structure (SMILES): CCC(C(=O)Nc1sc2c(c1C(=O)O)CCN(C(=O)c1cccc3ccccc13)C2)c1ccccc1 (centres unmarked)
- % Inhibition: 62.49%

Structure (SMILES): COc1cccc(C(=O)N2CCc3c(sc(NC(=O)c4ccc(Cl)cc4)c3C(=O)O)C2)c1OC
- % Inhibition: 77.82%

Structure (SMILES): CCC(C(=O)Nc1sc2c(c1C(=O)O)CCN(C(=O)/C=C/c1ccc(Cl)cc1)C2)c1ccccc1 (centres unmarked)
- % Inhibition: 82.18%

Structure (SMILES): Cc1ccc(C)c(CC(=O)N2CCc3c(sc(NC(=O)c4ccc(C(C)(C)C)cc4)c3C(=O)O)C2)c1
- % Inhibition: 92.67%

Structure (SMILES): CC(C)C(=O)N1CCc2c(sc(NC(=O)c3ccc4ccccc4c3)c2C(=O)O)C1
- % Inhibition: 65.78%

Structure (SMILES): COc1cccc(C(=O)Nc2sc3c(c2C(=O)O)CCN(C(=O)Cc2cc(C)ccc2C)C3)c1
- % Inhibition: 62.32%

Structure (SMILES): CCc1ccc(C(=O)Nc2sc3c(c2C(=O)O)CCN(C(=O)c2ccc(Cl)cc2OC)C3)cc1
- % Inhibition: 62.84%

Structure (SMILES): Cc1ccsc1C(=O)N1CCc2c(sc(NC(=O)c3ccccc3)c2C(=O)O)C1
- % Inhibition: 93.13%

Structure (SMILES): CC(C)C(=O)N1CCc2c(sc(NC(=O)c3ccccc3)c2C(=O)O)C1
- % Inhibition: 90.8%

Structure (SMILES): Cc1c(F)cccc1C(=O)N1CCc2c(sc(NC(=O)CC(C)CC(C)(C)C)c2C(=O)O)C1 (centres unmarked)
- % Inhibition: 77.56%

Structure (SMILES): COc1ccc(OC)c(C(=O)N2CCc3c(sc(NC(=O)CCC4CCCC4)c3C(=O)O)C2)c1
- % Inhibition: 86.05%

Structure (SMILES): O=C(O)c1c(NC(=O)C2CCCCC2)sc2c1CCN(C(=O)CCc1ccc(F)c(F)c1)C2
- % Inhibition: 66.79%

Structure (SMILES): CSc1ccccc1C(=O)N1CCc2c(sc(NC(=O)c3ccccc3Cl)c2C(=O)O)C1
- % Inhibition: 67.09%

Structure (SMILES): COc1ccccc1C(=O)Nc1sc2c(c1C(=O)O)CCN(C(=O)Cc1cc(C)ccc1C)C2
- % Inhibition: 61.95%

Structure (SMILES): CSc1ccccc1C(=O)N1CCc2c(sc(NC(=O)c3ccc(C(C)(C)C)cc3)c2C(=O)O)C1
- % Inhibition: 64.48%

Structure (SMILES): CCCSc1ncccc1C(=O)N1CCc2c(sc(NC(=O)c3ccccc3Cl)c2C(=O)O)C1
- % Inhibition: 94.82%

Structure (SMILES): Cc1ccccc1C(=O)N1CCc2c(sc(NC(=O)CCC3CCCC3)c2C(=O)O)C1
- % Inhibition: 76.07%

Structure (SMILES): O=C(Nc1sc2c(c1C(=O)O)CCN(C(=O)c1ccc(Cl)cc1)C2)c1ccccc1
- % Inhibition: 87.07%

Structure (SMILES): COc1ccc(OC)c(C(=O)N2CCc3c(sc(NC(=O)CC(C)CC(C)(C)C)c3C(=O)O)C2)c1 (centres unmarked)
- % Inhibition: 68.17%

Structure (SMILES): CCC(=O)N1CCc2c(sc(NC(=O)C(CC)c3ccccc3)c2C(=O)O)C1 (centres unmarked)
- % Inhibition: 60.7%

Structure (SMILES): CCCc1ccc(C(=O)Nc2sc3c(c2C(=O)O)CCN(C(=O)c2ccc(Cl)cc2)C3)cc1
- % Inhibition: 64.18%

Structure (SMILES): COc1cccc(C(=O)Nc2sc3c(c2C(=O)O)CCN(C(=O)c2cccc4ccccc24)C3)c1
- % Inhibition: 82.32%

Structure (SMILES): Cc1c(F)cccc1C(=O)N1CCc2c(sc(NC(=O)c3ccccc3Cl)c2C(=O)O)C1
- % Inhibition: 62.62%

Structure (SMILES): O=C(Nc1sc2c(c1C(=O)O)CCN(C(=O)c1ccccc1Cl)C2)c1ccc2ccccc2c1
- % Inhibition: 63.6%

Structure (SMILES): CCCc1ccc(C(=O)Nc2sc3c(c2C(=O)O)CCN(C(=O)c2cccc(F)c2C)C3)cc1
- % Inhibition: 99.63%

Structure (SMILES): COc1cccc(C(=O)Nc2sc3c(c2C(=O)O)CCN(C(=O)c2ccccc2C(F)(F)F)C3)c1
- % Inhibition: 73.59%

Structure (SMILES): O=C(Nc1sc2c(c1C(=O)O)CCN(C(=O)CCc1ccc(F)c(F)c1)C2)c1ccccc1
- % Inhibition: 74.96%

Structure (SMILES): O=C(Nc1sc2c(c1C(=O)O)CCN(C(=O)CCc1ccc(F)c(F)c1)C2)c1ccccc1Cl
- % Inhibition: 94.52%

Structure (SMILES): CCc1ccc(C(=O)Nc2sc3c(c2C(=O)O)CCN(C(=O)C2CCC2)C3)cc1
- % Inhibition: 65.14%

Structure (SMILES): O=C(Nc1sc2c(c1C(=O)O)CCN(C(=O)c1ccccc1C(F)(F)F)C2)c1ccc(Cl)cc1
- % Inhibition: 67.09%

Structure (SMILES): CCCc1ccc(C(=O)Nc2sc3c(c2C(=O)O)CCN(C(=O)c2cccnc2OCC)C3)cc1
- % Inhibition: 92.34%

Structure (SMILES): CSc1ccccc1C(=O)N1CCc2c(sc(NC(=O)c3ccc(Cl)cc3)c2C(=O)O)C1
- % Inhibition: 71.86%

Structure (SMILES): CCc1ccc(C(=O)Nc2sc3c(c2C(=O)O)CCN(C(=O)CCc2ccc(F)c(F)c2)C3)cc1
- % Inhibition: 85.13%

Structure (SMILES): O=C(Nc1sc2c(c1C(=O)O)CCN(C(=O)c1ccc(C(F)(F)F)cc1)C2)c1ccc2ccccc2c1
- % Inhibition: 63.29%

Structure (SMILES): CSc1ncccc1C(=O)N1CCc2c(sc(NC(=O)c3ccccc3Cl)c2C(=O)O)C1
- % Inhibition: 60.53%

Structure (SMILES): CCCc1ccc(C(=O)Nc2sc3c(c2C(=O)O)CCN(C(=O)c2ccccc2Cl)C3)cc1
- % Inhibition: 86.38%

Structure (SMILES): O=C(Nc1sc2c(c1C(=O)O)CCN(C(=O)c1cccc(Cl)c1)C2)c1c(F)cccc1F
- % Inhibition: 77.03%

Structure (SMILES): CCCCOc1ccc(C(=O)Nc2sc3c(c2C(=O)O)CCN(C(=O)CC)C3)cc1
- % Inhibition: 65.64%

Structure (SMILES): CC(CC(=O)Nc1sc2c(c1C(=O)O)CCN(C(=O)c1ccc(Cl)cc1)C2)CC(C)(C)C (centres unmarked)
- % Inhibition: 63.48%

Structure (SMILES): CCOc1ncccc1C(=O)N1CCc2c(sc(NC(=O)c3ccccc3)c2C(=O)O)C1
- % Inhibition: 95.92%

Structure (SMILES): COc1cccc2cc(C(=O)N3CCc4c(sc(NC(=O)c5ccccc5)c4C(=O)O)C3)oc12
- % Inhibition: 76.35%

Structure (SMILES): O=C(Nc1sc2c(c1C(=O)O)CCN(C(=O)c1ccco1)C2)c1ccccc1Cl
- % Inhibition: 78.12%

Structure (SMILES): O=C(O)c1c(NC(=O)C2CCCCC2)sc2c1CCN(C(=O)c1cc3ccccc3s1)C2
- % Inhibition: 72.52%

Structure (SMILES): CC(C)CC(=O)N1CCc2c(sc(NC(=O)c3ccc(Cl)cc3)c2C(=O)O)C1
- % Inhibition: 84.68%

Structure (SMILES): Cc1noc(C)c1C(=O)N1CCc2c(sc(NC(=O)c3ccccc3)c2C(=O)O)C1
- % Inhibition: 96.39%

Structure (SMILES): CCc1ccc(C(=O)Nc2sc3c(c2C(=O)O)CCN(C(=O)c2ccccc2C(F)(F)F)C3)cc1
- % Inhibition: 86.11%

Structure (SMILES): CC(=O)Nc1ccc(C(=O)N2CCc3c(sc(NC(=O)c4ccc(C(C)(C)C)cc4)c3C(=O)O)C2)cc1
- % Inhibition: 71.69%

Structure (SMILES): O=C(Nc1sc2c(c1C(=O)O)CCN(C(=O)c1ccc(F)cc1F)C2)c1ccccc1Cl
- % Inhibition: 64.7%

Structure (SMILES): CCCSc1ncccc1C(=O)N1CCc2c(sc(NC(=O)c3ccc(Cl)cc3)c2C(=O)O)C1
- % Inhibition: 66.79%

Structure (SMILES): Cc1ccc(C(=O)N2CCc3c(sc(NC(=O)c4ccccc4Cl)c3C(=O)O)C2)cn1
- % Inhibition: 69.18%
